Results on 20 molecules are retold here after ChEMBL document CHEMBL5356945, “Discovery of PFI-6, a small-molecule chemical probe for the YEATS domain of MLLT1 and MLLT3” (Bioorg Med Chem Lett, 2024).

For data set [1], the target named is T1, Protein ENL (Homo sapiens, UniProt Q03111).
T1 sequence (Q03111 whole entry): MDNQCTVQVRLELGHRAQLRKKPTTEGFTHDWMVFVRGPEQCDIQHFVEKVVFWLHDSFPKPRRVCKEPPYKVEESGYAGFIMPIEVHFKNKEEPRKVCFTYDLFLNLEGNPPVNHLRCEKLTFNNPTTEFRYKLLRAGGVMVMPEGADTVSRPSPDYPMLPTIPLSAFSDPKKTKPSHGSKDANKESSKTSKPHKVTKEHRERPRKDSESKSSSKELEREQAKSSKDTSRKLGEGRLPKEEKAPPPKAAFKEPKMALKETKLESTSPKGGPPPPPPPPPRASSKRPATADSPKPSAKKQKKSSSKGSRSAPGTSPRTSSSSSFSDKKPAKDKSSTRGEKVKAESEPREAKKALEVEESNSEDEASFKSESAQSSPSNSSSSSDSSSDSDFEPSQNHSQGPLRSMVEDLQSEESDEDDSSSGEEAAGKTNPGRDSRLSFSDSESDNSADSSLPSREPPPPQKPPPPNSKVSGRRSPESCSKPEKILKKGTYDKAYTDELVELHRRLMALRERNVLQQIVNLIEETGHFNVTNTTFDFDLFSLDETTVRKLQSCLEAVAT
Description: Inhibition of MLLT1 YD domain (unknown origin) assessed as disruption of histone peptide binding using histone peptide as substrate by HTRF assay.

The target in data set [2] is T2, YEATS domain-containing protein 2 (Homo sapiens, UniProt Q9ULM3).
T2 sequence (Q9ULM3 whole entry): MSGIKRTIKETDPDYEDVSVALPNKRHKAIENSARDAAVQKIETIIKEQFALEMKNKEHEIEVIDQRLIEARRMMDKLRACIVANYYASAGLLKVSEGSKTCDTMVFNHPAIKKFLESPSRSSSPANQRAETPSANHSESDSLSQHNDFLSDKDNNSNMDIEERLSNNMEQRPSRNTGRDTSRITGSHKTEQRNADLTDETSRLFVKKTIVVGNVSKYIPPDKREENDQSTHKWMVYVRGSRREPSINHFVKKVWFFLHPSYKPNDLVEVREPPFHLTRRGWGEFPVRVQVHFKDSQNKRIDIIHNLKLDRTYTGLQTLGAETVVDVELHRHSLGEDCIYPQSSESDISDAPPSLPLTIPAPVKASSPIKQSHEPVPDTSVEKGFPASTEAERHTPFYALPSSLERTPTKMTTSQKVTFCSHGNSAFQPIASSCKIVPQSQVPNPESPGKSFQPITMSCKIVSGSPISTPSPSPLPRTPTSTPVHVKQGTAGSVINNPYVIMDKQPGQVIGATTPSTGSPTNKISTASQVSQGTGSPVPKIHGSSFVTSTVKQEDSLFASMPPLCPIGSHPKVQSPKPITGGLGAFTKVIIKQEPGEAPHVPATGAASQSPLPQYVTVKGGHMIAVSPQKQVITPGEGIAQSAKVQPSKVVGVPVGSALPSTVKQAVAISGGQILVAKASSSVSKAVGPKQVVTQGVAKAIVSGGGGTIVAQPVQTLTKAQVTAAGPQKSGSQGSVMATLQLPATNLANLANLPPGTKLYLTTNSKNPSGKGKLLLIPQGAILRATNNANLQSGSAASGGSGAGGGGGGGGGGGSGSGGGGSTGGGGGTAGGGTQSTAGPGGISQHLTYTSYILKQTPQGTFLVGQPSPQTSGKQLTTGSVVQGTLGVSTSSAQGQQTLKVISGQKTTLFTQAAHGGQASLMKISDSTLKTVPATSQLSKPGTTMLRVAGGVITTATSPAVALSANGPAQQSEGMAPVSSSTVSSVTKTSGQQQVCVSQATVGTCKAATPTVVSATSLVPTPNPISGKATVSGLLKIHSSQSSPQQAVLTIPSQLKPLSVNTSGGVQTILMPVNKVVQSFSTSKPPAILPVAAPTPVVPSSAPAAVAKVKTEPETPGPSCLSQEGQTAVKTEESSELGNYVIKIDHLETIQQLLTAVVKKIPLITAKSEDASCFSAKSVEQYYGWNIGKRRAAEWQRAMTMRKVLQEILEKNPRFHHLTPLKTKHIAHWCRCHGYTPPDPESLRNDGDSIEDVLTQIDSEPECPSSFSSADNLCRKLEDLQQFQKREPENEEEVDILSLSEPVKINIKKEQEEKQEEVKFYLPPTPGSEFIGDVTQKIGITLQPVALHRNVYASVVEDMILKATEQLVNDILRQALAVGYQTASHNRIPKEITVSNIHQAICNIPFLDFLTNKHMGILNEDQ
Put plainly: Inhibition of YEATS2 YD domain (unknown origin) assessed as disruption of histone peptide binding using histone peptide as substrate by HTRF assay.

Data set [3] has as its target T3, YEATS domain-containing protein 4 (Homo sapiens, UniProt O95619). Description: Inhibition of YEATS4 YD domain (unknown origin) assessed as disruption of histone peptide binding using histone peptide as substrate by HTRF assay.
Data set [4] deals with T4, Protein AF-9 (Homo sapiens, UniProt P42568).
T4 sequence (P42568 whole entry): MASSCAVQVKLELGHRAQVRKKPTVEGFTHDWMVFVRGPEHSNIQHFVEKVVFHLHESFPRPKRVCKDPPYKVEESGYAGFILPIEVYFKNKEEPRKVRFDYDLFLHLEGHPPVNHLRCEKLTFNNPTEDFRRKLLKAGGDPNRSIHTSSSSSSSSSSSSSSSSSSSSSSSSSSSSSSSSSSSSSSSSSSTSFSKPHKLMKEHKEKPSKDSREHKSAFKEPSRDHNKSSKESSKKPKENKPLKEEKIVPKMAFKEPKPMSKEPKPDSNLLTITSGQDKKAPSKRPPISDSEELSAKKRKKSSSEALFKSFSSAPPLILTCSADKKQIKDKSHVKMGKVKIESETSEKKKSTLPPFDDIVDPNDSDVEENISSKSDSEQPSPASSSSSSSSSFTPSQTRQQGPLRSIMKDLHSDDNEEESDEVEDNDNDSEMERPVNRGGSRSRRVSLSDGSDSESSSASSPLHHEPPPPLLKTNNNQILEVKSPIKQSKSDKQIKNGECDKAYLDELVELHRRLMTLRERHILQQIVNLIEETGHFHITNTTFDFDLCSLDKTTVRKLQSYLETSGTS
Put plainly: Inhibition of MLLT3 YD domain (unknown origin) assessed as disruption of histone peptide binding using histone peptide as substrate by HTRF assay.

The target of data set [5] is T5, Protein ENL (Homo sapiens) (UniProt Q03111).
T5 sequence (whole entry): T1 sequence (Q03111 whole entry)
Put plainly: Inhibition of His-tagged MLLT1 YD domain (unknown origin) assessed as disruption of protein binding to histone peptide using biotinylated histone peptide as substrate at 100 uM by AlphaScreen assay.

Data set [6] has as its target T4, Protein AF-9. Put plainly: Binding affinity to MLLT3 in human HEK293 cells by NanoBRET assay. The format is cell-based.
The target in data set [7] is T1, Protein ENL. Put plainly: Inhibition of His-tagged MLLT1 YD domain (unknown origin) assessed as disruption of protein binding to histone peptide using biotinylated histone peptide as substrate by AlphaScreen assay.
Data set [8] deals with T5, Protein ENL (Homo sapiens). Description: Binding affinity to MLLT1 YD domain (unknown origin) assessed as change in melting temperature by thermal shift assay.
Data set [9] can be described thus: Cytotoxicity against human THLE cells assessed as decrease in cellular ATP by CellTiter-Glo assay. It counts as toxicity, cell-based.
Data set [10] is described as follows: Metabolic stability in human hepatocytes assessed as apparent intrinsic clearance measured per million cells. The format is ADME, cell-based, Hepatocyte.
A short description of data set [11]: Lipophilicity, logD of the compound by shake flask method. The following applies: octanol/water. It counts as physicochemical.
Data set [12] concerns the target T3, YEATS domain-containing protein 4. Put plainly: Binding affinity to YEATS4 YD domain (unknown origin) assessed as change in melting temperature by thermal shift assay.
A short description of data set [13]: Kinetic solubility of compound at pH 7.4. The format is physicochemical. Particulars: buffer, read-out: Kinetic_solubility.
In data set [14] the target is T6, Protein AF-9 (Homo sapiens) (UniProt P42568).
T6 sequence (whole entry): T4 sequence (P42568 whole entry)
Description: Binding affinity to MLLT3 YD domain (unknown origin) assessed as change in melting temperature by thermal shift assay

A short description of data set [15]: Passive apparent permeability in dog MDCK cells. The format is ADME, cell-based, Canis lupus familiaris.
Data set [16] concerns the target T7, YEATS domain-containing protein 2 (Homo sapiens) (UniProt Q9ULM3).
T7 sequence (whole entry): T2 sequence (Q9ULM3 whole entry)
Put plainly: Binding affinity to YEATS2 YD domain (unknown origin) assessed as change in melting temperature by thermal shift assay.

Data set [17] concerns the target Voltage-gated inwardly rectifying potassium channel KCNH2 (Homo sapiens, UniProt Q12809). Put plainly: Inhibition of human ERG assessed as inhibition constant by patch-clamp assay. The format is toxicity.

Structures are written as SMILES. Converted amounts (≈) assume the structure as drawn.

T3 sequence (O95619 whole entry, the tested form may be a part): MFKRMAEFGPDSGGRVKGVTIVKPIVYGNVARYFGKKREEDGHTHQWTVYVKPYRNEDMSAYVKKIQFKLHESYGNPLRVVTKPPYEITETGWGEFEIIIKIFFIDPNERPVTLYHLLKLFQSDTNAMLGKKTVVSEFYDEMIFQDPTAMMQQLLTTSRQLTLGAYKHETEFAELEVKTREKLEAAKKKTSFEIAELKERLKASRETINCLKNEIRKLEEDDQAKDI
Sequence of Voltage-gated inwardly rectifying potassium channel KCNH2 (Q12809 whole entry): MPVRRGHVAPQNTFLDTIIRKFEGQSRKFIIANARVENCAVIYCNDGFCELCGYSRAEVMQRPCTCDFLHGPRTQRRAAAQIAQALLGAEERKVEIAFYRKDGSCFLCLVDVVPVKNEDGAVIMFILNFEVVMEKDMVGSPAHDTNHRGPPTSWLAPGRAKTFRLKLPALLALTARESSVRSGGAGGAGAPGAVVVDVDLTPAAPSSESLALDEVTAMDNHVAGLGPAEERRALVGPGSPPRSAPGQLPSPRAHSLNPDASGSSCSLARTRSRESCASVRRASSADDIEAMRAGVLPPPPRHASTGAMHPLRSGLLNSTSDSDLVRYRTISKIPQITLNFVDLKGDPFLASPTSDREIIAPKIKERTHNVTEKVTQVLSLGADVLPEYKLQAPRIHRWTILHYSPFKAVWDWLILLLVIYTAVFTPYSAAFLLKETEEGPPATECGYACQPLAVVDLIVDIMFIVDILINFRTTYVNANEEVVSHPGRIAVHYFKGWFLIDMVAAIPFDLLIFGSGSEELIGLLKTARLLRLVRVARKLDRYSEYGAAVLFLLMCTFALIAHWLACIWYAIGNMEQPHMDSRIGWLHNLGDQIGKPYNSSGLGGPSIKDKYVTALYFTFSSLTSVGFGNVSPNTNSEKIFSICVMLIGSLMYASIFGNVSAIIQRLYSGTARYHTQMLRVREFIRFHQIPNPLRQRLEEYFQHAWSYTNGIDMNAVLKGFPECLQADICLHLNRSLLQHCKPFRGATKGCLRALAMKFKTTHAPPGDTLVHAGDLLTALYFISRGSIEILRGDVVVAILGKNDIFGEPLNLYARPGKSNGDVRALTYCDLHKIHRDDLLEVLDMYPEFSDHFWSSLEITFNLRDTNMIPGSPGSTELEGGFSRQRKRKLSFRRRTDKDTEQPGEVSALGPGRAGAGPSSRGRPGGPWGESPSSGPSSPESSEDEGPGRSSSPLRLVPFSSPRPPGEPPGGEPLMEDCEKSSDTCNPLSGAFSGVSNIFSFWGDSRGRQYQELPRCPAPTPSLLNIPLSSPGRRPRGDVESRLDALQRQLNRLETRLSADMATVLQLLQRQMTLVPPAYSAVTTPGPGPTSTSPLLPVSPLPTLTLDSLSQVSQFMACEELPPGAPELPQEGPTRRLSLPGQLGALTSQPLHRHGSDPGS

For `O=C(NC1CCCC1)c1cc(-c2cc(O)c3cccnc3c2)on1`, the IC50 was 260 nM in data set [1], > 30 µM in data set [2], > 30 µM in data set [3] and 200 nM in data set [4].

Turning to `C/C=C/C(=O)NC1CCCC1`, in [5], the inhibition came out at 55%.

Turning to `CN(C)C(=O)c1ccc(-c2cc(C(=O)N(C)C3CCCC3)no2)cc1O`, the IC50 was > 30000 nM in data set [1]; > 30 µM in [2]; > 30 µM in data set [3]; > 30000 nM in data set [6]; > 30000 nM in [4].

Take `O=C(NC1CCCC1)c1cc(-c2cccc(O)c2)on1`: the IC50 in data set [1] was 930 nM; in data set [7], 1.1 µM; in data set [2], > 30 µM; in data set [3] it was > 30 µM; in data set [4], 630 nM.

Regarding `O=C(NC1CCCC1)c1cc2cc(F)ccc2[nH]1`, the IC50 in data set [7] was 5.64 µM.

In the case of `O=C(NC1CCCC1)c1cc(-c2ccc(O)cc2)on1`, the IC50 in data set [7] was 6.9 µM.

`O=C(NCC1CC1)c1cc(-c2cccc(O)c2)on1`: the concentration for half-maximal inhibition (IC50) in data set [7] turned out to be 21.9 µM.

Take `O=C(NC1CC1)c1cc(-c2cccc(O)c2)on1`: the IC50 in data set [7] is 28.9 µM.

On to `O=C(NC1CCCC1)c1ccc2snnc2c1`, for which the IC50 in data set [7] was 3 µM.

For the molecule `CN(C)C(=O)c1ccc(-c2cc(C(=O)NC3CCCC3)no2)cc1O`, the IC50 in [1] was 160 nM; in data set [2], > 30 µM; in [3], > 30 µM; in data set [4] it was 120 nM.

Turning to `CC(C)NC(=O)c1cc(-c2cccc(O)c2)on1`, the IC50 in data set [7] came out at 9.13 µM.

Take `O=C(NC1CCC1)c1cc(-c2cccc(O)c2)on1`: the half-inhibitory concentration (IC50) in [7] came to 1.14 µM.

Regarding `CN(C(=O)c1cc(-c2cccc(O)c2)on1)C1CCCC1`, in [7], the IC50 is > 30 µM.

Consider `O=C(NC1CCCC1)c1cc(-c2cccc(O)c2Cl)on1`, for which the IC50 in data set [1] is > 30000 nM; in [2] it was > 30 µM; in [3], > 30 µM; in data set [4], > 30000 nM.

On to `CN(C)C(=O)c1ccc(-c2cc(C(=O)N[C@@H]3CCc4ccccc43)no2)cc1O`, for which the ΔTm in data set [8] is 3.61 °C; in [12] it was -0.02 °C; in data set [14], 5.13 °C; in [16], 0 °C. Further, the figures for the IC50 in data set [9], in data set [2] and in [3] were > 100 µM, > 30 µM and > 30 µM, respectively. The “CLH(app)” value in data set [10] was found to be 43 µL/min. The same molecule yielded a logD in data set [11] of 3.3. The solubility kinetic in [13] stood at 3000 µM (≈ 1170 µg/mL). In addition, the Papp in data set [15] stood at 27 ×10⁻⁶ cm/s. Further, the Ki in data set [17] is > 100 µM.

For `O=C(NC1CCCC1)c1cc(-c2ccc(Cl)c(O)c2)on1`, the IC50 in data set [1] was 750 nM; in data set [2], > 30 µM; in [3], > 5.8 µM; in data set [4], 500 nM.

For `O=C(NC1CCCC1)c1cc(-c2cccc(O)c2)n[nH]1`, the IC50 in [1] was 2500 nM; in data set [2] it was > 30 µM; in data set [3], > 30 µM; in [4], 3400 nM.

In the case of `O=C(NC1CCCC1)c1cnn(-c2cccc(O)c2)c1`, the IC50 in data set [1] was 3400 nM; in data set [2] it was > 30 µM; in [3], > 30 µM; in [4], 2400 nM.

With `O=C(NC1CCCC1)c1cn(-c2cccc(O)c2)cn1`, the IC50 is 970 nM in [1], > 26 µM in data set [2], > 30 µM in data set [3] and 500 nM in data set [4].

Take `C[C@H]1CCCN1Cc1nc2cc(NC(=O)c3ccc4c(cnn4C)c3)ccc2[nH]1`: the IC50 in [6] worked out at 600 nM.
